Assay results from US4201725A, “Secondary amines” (priority 1974, dated 1980).
“Also recorded” adds a separate entry of the source. Where two headings read alike, the source gives them in different places.

Tests used:
[1] = tested on: reserpine-induced catatonia; test: Inhibition of reserpine-induced catatonia (preventive, oral compound 30 min before reserpine); type: in vivo, rat (male, OFA strain); settings: for Inhibition of reserpine-induced catatonia: 6 mg/kg oral; for index of reserpine-induced catatonia (numerator of ratio): 0.031 m mol/kg oral, hydrochloride form
Protocol: After sufficient doses of reserpine have been administered to the rat, a series of symptoms occur, more particularly ptosis, catatonia and a drop in central temperature. These symptoms are caused by the depletion of the intragranular reserve pool of biogenetic amines at the synaptic terminals.
An oral dose of the compound to be studied in aqueous solution was administered to batches of 10 male rats of the OFA strain weighing about 150 to 200 g. Thirty minutes later a dose of 5 mg/kg of reserpine was given by intraperitoneal route. Three hours after the injection of reserpine, the animals were suspended by the four paws to a horizontally stretched wire fixed at 15 cm from the ground. The catatonia animals were those which maintained the position so given for at least 30 seconds. […] The maximum score was therefore 10 per batch. An identical trial was undertaken with control animals which received reserpine but none of the compounds being studied.

catalepsy = test: Prochlorperazine-induced catalepsy (crossing of homolateral paws); type: in vivo, rat; settings: 5 mg/kg oral 30 min before prochlorperazine i.p.; 3 h after injection
Protocol: Additional trials were carried out on rats with Compound 1 and amantadine. These trails involved catalepsy as evidenced by the crossing of the animal's homolateral paws.

[2] = tested on: reserpine-induced catatonia; test: Suppression of reserpine-induced catatonia (curative treatment); type: in vivo, rat (male, OFA strain); settings: 2.5 and 5 mg/kg oral vs 80 mg/kg amantadine
Protocol: Batches of 5 male rats of the OFA strain, weighing 150 to 200 g were given 5 mg/kg of reserpine by intraperitoneal route. One hour and 45 minutes later, namely when the animals were in a state of catatonia, an aqueous dose of the compound to be studied was administered by oral route to all the animals with the exception of the control group.
The progress of the catatonia was then noted following the scale used in the tests described hereabove.
The maximum score was thus 5 per batch which means that all the animals of the batch were considered to be still in a state of catatonia.

[3] = tested on: neuroleptic-induced catatonia; test: Suppression of neuroleptic (prochlorperazine)-induced catatonia (curative treatment); type: in vivo, rat (male, OFA strain); settings: 5 mg/kg vs 80 mg/kg amantadine
Protocol: Batches of 5 male rats of the OFA strain were given 12.5 mg/kg of prochlorperazine by intraperitoneal route. Fifty-five minutes later, an oral dose in aqueous solution of the compound to be studied was administered to all the animals with the exception of the control group. The progress of the catatonia was noted following the same scale as that used in the tests described above.

[4] = tested on: isolated duodenum of the rat; test: MAGNUS test: cholinolytic/spasmolytic activity on acetylcholine spasm in vitro
Source text: This test consists in determining the dose of acetylcholine which, when added to the bath, provokes spasm of the isolated duodenum of the rat. The next step consists in determining the dose of the compound under study which, when added to the bath 30 seconds before the acetylcholine, reduces the spasm.

[5] = tested on: cholinergic effects of tremorine; test: Anti-tremorine test in vivo; set-up: species or system mice (male, OF1 strain); settings: for antitremorine properties (in words): 5 mg/kg Compound 1, 40 mg/kg amantadine; for central cholinergic effects (normal and provoked tremor): identical to the peripheral score of 4
Protocol: When injected into mice, tremorine produces peripheral effects i.e. weeping, sweating, salivation and diarrhoea and central effects i.e. tremor and akinesia. Such effects are due to an increase in the amount of intracerebral acetylcholine and serotonine.
[…] Thirty minutes later a dose of 10 mg/kg of tremorine was injected by intraperitoneal route and, at different times after this injection, note was taken of the cholinergic effects on each animal in accordance with the following scale:

[6] = Spasmolytic activity in vivo; settings: at antiparkinson doses, well below the toxic dose
[7] = SPERBER et al., J. Amer. Chem. Soc., 71, 3352 (1949); cited from earlier work
[8] = SPERBER et al., J. Amer. Chem. Soc., 71, 3352 (1949); cited from earlier work; remark: listed apart in the source
[9] = tested on: arterial pressure and nictitating membrane (norepinephrine); test: Influence on peripheral noradrenergic phenomena (norepinephrine, anaesthetized cat); settings: for Contractile reaction of the nictitating membrane without electric stimulation: at 0 mg/kg: 0; for Contractile reaction of the nictitating membrane with electric stimulation: at 0 mg/kg: Compound 1 17, amantadine 20; for Increase in arterial pressure after injection of norepinephrine: at 0 mg/kg: Compound 1 26, amantadine 28
[10] = tested on: neuroleptic-induced catatonia; test: Inhibition of neuroleptic (prochlorperazine)-induced catatonia (preventive); type: in vivo, rat (male, OFA strain); settings: 6 mg/kg oral
Protocol: The blocking of dopaminergic receptors by neuroleptics in the extra-pyramidal system induces catatonia in the rat. Catatonia is differentiated from sedative properties by means of the test used hereabove for reserpine-induced catatonia. The same system of scoring was also employed in the present case.
An oral dose of the compound to be studied in aqueous solution was administered to batches of 10 male rats of the OFA strain weighing about 150 to 200 g.
Three hours after the injection of this latter compound, catatonia was measured. An identical trial was also carried out with control animals which received prochlorperazine but none of the compounds under study.
The scoring system used was that given hereabove for Table I.

in vivo = settings: mouse, po
Tremor-inducing action = settings: 0.031 m mol/kg oral, 30 min, hydrochloride form; for number of animals presenting tremors (denominator of ratio): batches of 10 rats
electrocardiogram = test: Effect on the electrocardiogram; type: in vivo; settings: amantadine: 5 mg/kg injected, dog
monoamine oxidase = test: Inhibitory effect on monoamine oxidase

## CCCC(N)(CCC)CCC [Compound 1]
[1]; rat, in vivo
  activity in pharmacological trials (in words): marked degree of activity
catalepsy
  inhibition of the catalepsy: complete inhibition of the catalepsy
[2]
  suppression of reserpine-induced catatonia (in words): suppresses reserpine-induced catatonia more rapidly than a dose of 80 mg/kg of amantadine
[3]
  action against neuroleptic-induced catatonia (in words): acts against neuroleptic-induced catatonia more rapidly than does a dose of 80 mg/kg of amantadine
[4]
  spasmolytic / cholinolytic activity in vitro (in words): virtually non-existent in comparison with that of atropine; also recorded: extremely weak cholinolytic action
[4]; listed as tri-n-propylmethylamine
  spasmolytic / cholinolytic activity in vitro (in words): very weak, in fact practically non-existent
[5]
  antitremorine properties (in words): devoid of antitremorine properties
[5]; 5 mg/kg oral
  central cholinergic effects (normal and provoked tremor): Identical results
[5]; therapeutic doses
  cholinolytic properties in vivo (in words): absence of cholinolytic properties
[6]
  spasmolytic activity in vivo (in words): non-existent
[7]
  spasmolytic activity (in words): less spasmolytic
[8]
  toxicity (in words): more toxic than the corresponding trialkylethylamines
[9]; cat, i.v.
  potentiation of norepinephrine / peripheral adrenergic effects (in words): does not potentiate the effects either of exogenous norepinephrine or of endogenous norepinephrine
[9]; cumulative dose 0.1 mg/kg i.v.
  Contractile reaction of the nictitating membrane without electric stimulation: 0 mm
  Contractile reaction of the nictitating membrane with electric stimulation: 15 mm
  Increase in arterial pressure after injection of norepinephrine: 18 mm Hg
[9]; cumulative dose 1 mg/kg i.v.
  Contractile reaction of the nictitating membrane without electric stimulation: 0 mm
  Contractile reaction of the nictitating membrane with electric stimulation: 16 mm
  Increase in arterial pressure after injection of norepinephrine: 25 mm Hg
[9]; cumulative dose 3 mg/kg i.v.
  Contractile reaction of the nictitating membrane without electric stimulation: 0 mm
  Contractile reaction of the nictitating membrane with electric stimulation: 17 mm
  Increase in arterial pressure after injection of norepinephrine: 29 mm Hg
[9]; cumulative dose 5 mg/kg i.v.
  Contractile reaction of the nictitating membrane without electric stimulation: 0 mm
  Contractile reaction of the nictitating membrane with electric stimulation: 16 mm
  Increase in arterial pressure after injection of norepinephrine: 25 mm Hg
[9]; cumulative dose 10 mg/kg i.v.
  Contractile reaction of the nictitating membrane without electric stimulation: 0 mm
  Contractile reaction of the nictitating membrane with electric stimulation: 12 mm
  Increase in arterial pressure after injection of norepinephrine: 22 mm Hg

## C#CCNC(CCC)(CCC)CCC [Compound 36, N-Propargyl-1,1-di-n-propyl-n-butylamine]
[1]
  Inhibition of reserpine-induced catatonia: 1 (represents 20 to 30% inhibition of catatonia in comparison with the controls)
  index of reserpine-induced catatonia (numerator of ratio): 3 (represents 70 to 80% inhibition of catatonia in comparison with the controls)
[10]
  Inhibition of the neuroleptic-induced catatonia: 4 (represents 100% inhibition of catatonia in comparison with the controls)
In vivo
  selectivity ratio: > 25
Tremor-inducing action
  number of animals presenting tremors (denominator of ratio): 5
  ratio of index of reserpine-induced catatonia inhibition to number of animals presenting tremors: 0.60

## CCCC(CCC)(NC)C(C)C [Compound 30, N-Methyl-1-n-propyl-1-isopropyl-n-butylamine]
[1]
  Inhibition of reserpine-induced catatonia: 4 (represents 100% inhibition of catatonia in comparison with the controls)
  index of reserpine-induced catatonia (numerator of ratio): 4 (represents 100% inhibition of catatonia in comparison with the controls)
[10]
  Inhibition of the neuroleptic-induced catatonia: 3 (represents 70 to 80% inhibition of catatonia in comparison with the controls)
In vivo
  selectivity ratio: > 25
Tremor-inducing action
  number of animals presenting tremors (denominator of ratio): 3
  ratio of index of reserpine-induced catatonia inhibition to number of animals presenting tremors: 1.33

## NC12CC3CC(CC(C3)C1)C2 [Amantadine, 1-amino-adamantane, reference compound]
[5]
  antitremorine properties (in words): devoid of antitremorine properties
[5]; 40 mg/kg oral
  central cholinergic effects (normal and provoked tremor): Identical results
electrocardiogram
  effect on the electrocardiogram (in words): provokes cardiac arrhythmia due to ventricular extrasystoles
[9]; cat, i.v.
  effect on the nictitating membrane (in words): stimulates the contractile reactions of the nictitating membrane but does not potentiate the effects of the electric stimulation
  potentiation of norepinephrine / peripheral adrenergic effects (in words): potentiates exogenous norepinephrine from 1 mg/kg
[9]; cat, i.v., listed as amantadine
  potentiation of norepinephrine / peripheral adrenergic effects (in words): potentiates the peripheral adrenergic effects

## CCCCC(N)(CCCC)CCCC [Compound 12, 1,1-Di-n-butyl-n-pentylamine]
[7]
  spasmolytic activity (in words): less spasmolytic
In vivo
  selectivity ratio: 25
[8]
  toxicity (in words): more toxic than the corresponding trialkylethylamines

## CCCC(CCC)(CCC)NC [Compound 27, N-Methyl-1,1-di-n-propyl-n-butylamine]
[1]
  Inhibition of reserpine-induced catatonia: 4 (represents 100% inhibition of catatonia in comparison with the controls)
  index of reserpine-induced catatonia (numerator of ratio): 4 (represents 100% inhibition of catatonia in comparison with the controls)
[10]
  Inhibition of the neuroleptic-induced catatonia: 3 (represents 70 to 80% inhibition of catatonia in comparison with the controls)
Monoamine oxidase
  inhibitory effects on the monoamine oxidase (in words): practically devoid of inhibitory effects
In vivo
  selectivity ratio: 16.5
Tremor-inducing action
  number of animals presenting tremors (denominator of ratio): 4
  ratio of index of reserpine-induced catatonia inhibition to number of animals presenting tremors: 1
